The nature of data set [1]: Single dose pharmacokinetics (PK) study in male Wister-Han rats. It counts as in vivo, rat. The conditions noted are these: for F: dose normalized AUC0-last PO 10 mg/kg vs IV 2 mg/kg; for AUC(0-t) / Cmax / clearance / half-life / Vd: rat, plasma; for Vd: read-out: Vss. The procedure:
Pharmacokinetic properties of selected compounds were assessed by single dose PK studies in Male Wister-Han Rats (vendor: Beijing Vital River Laboratory Animal Technology Co., Ltd). Briefly, two groups of animals were administered a single dose of respective compound intravenously (IV, bolus) at 2 mg/kg or orally (PO, by gavage) at 10 mg/kg. Blood samples (approximately 150 μL) were collected via Jugular vein at 5 min (only for IV), 15 min, 30 min, 1 h, 2 h, 4 h, 7 h and 24 h post-dose. Blood samples were placed into tubes containing EDTA-K2 anticoagulant and centrifuged at 3000 rpm for 15 min at 4° C. to separate plasma from the samples. After centrifugation, the resulting plasma was transferred to clean tubes for bioanalysis with LC/MS/MS. The pharmacokinetic parameters were calculated using non-compartmental analysis. The volume of distribution (Vss), half-life (T1/2) and clearance (CL) were obtained based on the plasma concentration-time curve after IV dose. The peak concentration (Cmax) was recorded directly from experimental observations after PO dose. The area under the plasma concentration-time curve (AUC0-last) was calculated using the linear trapezoidal rule up to the last detectable concentration. The bioavailability (F) was calculated based on the dose normalized AUC0-last after IV and PO dose.
The Vss of a drug represents the degree to which a drug is distributed in body tissue rather than the plasma. Vss is directly proportional with the amount of drug distributed into tissue. A higher Vss indicates a greater amount of tissue distribution.

A further data set deals with T1, TLR9 (Homo sapiens, UniProt Q9NR96).
T1 sequence (Q9NR96 26-1032): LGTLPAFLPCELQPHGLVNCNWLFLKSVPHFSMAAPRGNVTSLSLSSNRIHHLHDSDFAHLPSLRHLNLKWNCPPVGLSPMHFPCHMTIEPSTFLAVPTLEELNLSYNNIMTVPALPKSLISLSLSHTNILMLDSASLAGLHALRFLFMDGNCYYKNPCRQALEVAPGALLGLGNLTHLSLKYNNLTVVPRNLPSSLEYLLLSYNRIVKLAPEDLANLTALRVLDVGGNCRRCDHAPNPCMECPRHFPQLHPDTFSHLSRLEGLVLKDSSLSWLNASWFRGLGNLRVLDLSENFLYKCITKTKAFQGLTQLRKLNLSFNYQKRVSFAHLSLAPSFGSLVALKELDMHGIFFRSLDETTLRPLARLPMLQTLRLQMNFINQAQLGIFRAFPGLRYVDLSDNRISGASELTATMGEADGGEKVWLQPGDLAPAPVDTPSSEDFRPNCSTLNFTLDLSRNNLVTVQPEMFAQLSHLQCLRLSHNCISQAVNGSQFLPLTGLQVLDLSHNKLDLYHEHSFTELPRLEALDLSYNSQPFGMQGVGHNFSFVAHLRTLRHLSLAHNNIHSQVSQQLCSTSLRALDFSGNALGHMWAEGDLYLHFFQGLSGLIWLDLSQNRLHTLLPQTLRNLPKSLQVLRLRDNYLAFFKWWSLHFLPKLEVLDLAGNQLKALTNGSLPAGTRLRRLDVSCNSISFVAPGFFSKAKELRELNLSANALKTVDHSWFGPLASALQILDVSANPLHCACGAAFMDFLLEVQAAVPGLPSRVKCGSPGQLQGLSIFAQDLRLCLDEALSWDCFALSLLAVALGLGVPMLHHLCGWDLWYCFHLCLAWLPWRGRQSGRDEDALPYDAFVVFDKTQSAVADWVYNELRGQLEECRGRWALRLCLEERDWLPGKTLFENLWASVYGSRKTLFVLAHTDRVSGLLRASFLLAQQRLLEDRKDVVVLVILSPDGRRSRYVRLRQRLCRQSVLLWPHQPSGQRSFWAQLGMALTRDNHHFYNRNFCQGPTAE
The experiment in a line: Human PBMC cell-based assay (CpG ODN 2216 stimulation). Further details: These cells express TLR7, TLR8, or TLR9, and therefore are natural responders to respective ligand stimulation; endogenous in cells; host or cells: human PBMC from healthy donor whole blood. To be noted: CpG ODN 2216 at 1 μM, overnight, read-out: hPBMC/TLR9 IC50. The text has this: Unlike the HEK reporter cell lines, human peripheral blood mononuclear cell (PBMC) represents primary human immune cells in blood mainly consisting of lymphocytes, monocytes, and dendritic cells. These cells express TLR7, TLR8, or TLR9, and therefore are natural responders to respective ligand stimulation. Upon activation of these TLRs, PBMCs secrete similar cytokines and chemokines in vitro and in vivo, and therefore the in vitro potency of a TLR7/8/9 antagonist in human PBMC is readily translatable to its pharmacodynamics response in vivo.
Human peripheral blood mononuclear cells (PBMC) were isolated from freshly-drawn lithium-heparinized (Lithium Heparin Plus blood Collection tube, BD Vacutainer®) healthy donor whole blood by density gradient (Ficoll-Paque™ PLUS, GE Healthcare life Sciences). Briefly, 50 mL of blood was diluted with 25 mL PBS (without Ca^2+, Mg^2+) in a 50 mL conical tube with porous barrier (Leucosep tube, Greiner bio-one), where 15.5 mL Ficoll-Paque was under laid after spinning. Tubes were centrifuged for 20 minutes at 800×g (1946 rpm) with the brake in the off position, and PBMC were collected from the buffy coat. Cells were then washed twice in PBS, and red blood cells were lysed by suspension in 2 mL (Red Blood Cell Lysis Buffer, Alfa Aesar) for 5-10 minutes at room temperature. After a final wash in PBS, PBMC were resuspended at a final concentration of 2×10^6 cells/mL in RPMI-1640 media with GlutaMAX™ (Gibco) supplemented with 10% Fetal Bovine Serum (Sigma) and plated at 150 μL/well (3×10^5 cells/well) in tissue culture treated round bottom 96-well plates (Corning Incorporated). Antagonist compounds (compounds of this invention) solubilized and serial diluted in 100% DMSO were added in duplicate to cells to yield a final concentration of 1% DMSO (v/v). PBMC were incubated with antagonist compounds for 30 minutes at 37° C., 5% CO2 before adding various TLR agonist reagents in 48 μL complete media per well as follows (final concentrations indicated): CpG ODN 2216 (InvivoGen) at 1 μM for TLR9, ORN 06/LyoVec (InvivoGen) at […] for TLR8 and R848 (InvivoGen) at 1p g/mL for TLR7 and TLR8. PBMC were incubated overnight at 37° C. with 5% CO2. Cell culture supernatants were collected, and levels of various human cytokines were assessed by Luminex assay (ProcartaPlex™ Multiplex Immunoassay, Invitrogen) or ELISA procedure according to the manufacturer's recommended protocol (eBioscience, ThermoFisher Scientific). Viability of the cells was also checked with Cell Viability Assay (CellTiter Glo®Luminescent Cell Viability Assay, Promega).

Setting [2] is: IV 2 mg/kg, read-out: IV AUC0-last.
[3] abbreviates: PO 10 mg/kg, read-out: PO AUC0-last.

pIC50: −log10 of the molar value. Where two headings read alike, the source gives them in different places.

The compound `C[C@H]1CN(c2ccnc3c2cnn3C)Cc2ccc(N3CCNCC3)cc21` [Example 1, (4R)-4-methyl-2-(1-methylpyrazolo[3,4-b]pyridin-4-yl)-6-piperazin-1-yl-3,4-dihydro-1H-isoquinoline] had a F in data set [1] of 113%. Besides, in data set [1] (setting [2]), the AUC(0-t) was found to be 1290 ng·h/mL. In addition, the peak concentration (Cmax) (usually the highest concentration seen after dosing) in data set [1] (PO 10 mg/kg) turned out to be 474 ng/mL. Also, the AUC(0-t) in data set [1] (setting [3]) was found to be 7270 ng·h/mL. In addition, in data set [1] (IV 2 mg/kg), the clearance (as a rule, a measure of how efficiently the substance is removed, as volume per time) came out at 24 mL/min/kg; the half-life (in general, the time needed for the level to fall by half in the phase considered) was 6.9 h; the Vd came to 11.2 L/kg. For the same compound, the pIC50 on TLR9 was 6.40.
`C[C@H]1CN(c2ccnc3c2cnn3C)Cc2ccc(OC[C@@H]3CNCCN3)cc21` [Example 19, (4R)-4-methyl-2-(1-methylpyrazolo[3,4-b]pyridin-4-yl)-6-[[(2S)-piperazin-2-yl]methoxy]-3,4-dihydro-1H-isoquinoline] came in with a F in data set [1] of 32%. Moreover, in data set [1] (setting [2]), the AUC(0-t) turned out to be 887 ng·h/mL. This compound also yielded a Cmax in data set [1] (PO 10 mg/kg) of 102 ng/mL. Further, in data set [1] (setting [3]), the AUC(0-t) amounted to 1410 ng·h/mL. Moreover, in data set [1] (IV 2 mg/kg), the clearance came out at 34 mL/min/kg, the half-life is 8.9 h and the Vd is 16 L/kg. Moreover, the pIC50 on TLR9 was 6.40.
In turn, `CO[C@@H]1CN(c2ccc3c(n2)[C@@H](C)CN(c2cc(C)nc4c2cnn4C)C3)C[C@H]1N` [Example 63, (3R,4R)-4-methoxy-1-[(8S)-6-(1,6-dimethylpyrazolo[3,4-b]pyridin-4-yl)-8-methyl-7,8-dihydro-5H-1,6-naphthyridin-2-yl]pyrrolidin-3-amine] came in with a F in data set [1] of 98%. For the same compound, the AUC(0-t) in data set [1] (setting [2]) turned out to be 80700 ng·h/mL. Further, the peak level in data set [1] (PO 10 mg/kg) (Cmax) was 22200 ng/mL. Moreover, the AUC(0-t) in data set [1] (setting [3]) was 394000 ng·h/mL. In data set [1] (IV 2 mg/kg), the clearance is 0.26 mL/min/kg, the half-life is 18.3 h and the Vd worked out at 0.38 L/kg. Further, the pIC50 at TLR9 was 6.37.

The values are drawn from patent publication US20240317735A1, “HYDROISOQUINOLINE OR HYDRONAPHTHYRIDINE COMPOUNDS FOR THE TREATMENT OF AUTOIMMUNE DISEASE” (Hoffmann-La Roche Inc., priority 2020, published 2024).
